Experimental findings from ChEMBL document CHEMBL4312020, “Design, synthesis and biological evaluation of oseltamivir derivatives containing pyridyl group as potent inhibitors of neuraminidase for influenza A” (Eur J Med Chem, 2020) are described below.

Molecules are shown by their SMILES. Some results are limits rather than exact numbers.

In general, IC50 refers to the midpoint of a concentration-inhibition curve. High values mean weaker potency in that assay, low ones greater potency in that assay. A word on the inhibition: it is the percentage by which the read-out fell short of the control. One may read the EC50 as the concentration at which the effect is half-maximal. For orientation: CC50 means the concentration giving 50% cytotoxicity. A high value points to lower toxicity to the cells. As usually defined, the AUC is the area under the concentration-time curve, a measure of exposure. Low readings indicate low exposure, high ones high exposure. Usually Cmax stands for the peak of the concentration-time curve. For orientation: half-life means the time needed for the level to fall by half in the phase considered. As a reminder, the bioavailability is the share of a dose that reaches the circulation, judged against a reference dose that is usually intravenous. The low end stands for little systemic uptake, the high end for much systemic uptake. By Tmax is commonly meant the time at which the peak concentration occurs. For orientation: MRT means the average time that molecules of a dose stay in the body.

A short description of data set [1]: Stability in human plasma assessed as compound remaining incubated for 10 mins by LC-MS/MS analysis. The class given is ADME, cell-free. Particulars: read-out: Stability.
Data set [2] can be described thus: Stability in human plasma assessed as compound remaining incubated for 60 mins by LC-MS/MS analysis. It counts as ADME, cell-free. Particulars: read-out: Stability.
Data set [3] in a line: Stability in human plasma assessed as compound remaining incubated for 30 mins by LC-MS/MS analysis. It counts as ADME, cell-free. Particulars: read-out: Stability.
A short description of data set [4]: Stability in human plasma assessed as compound remaining incubated for 0 mins by LC-MS/MS analysis. It counts as ADME, cell-free. Particulars: read-out: Stability.
The nature of data set [5]: Stability in human plasma assessed as compound remaining incubated for 120 mins by LC-MS/MS analysis. The class given is ADME, cell-free. Particulars: read-out: Stability.
In data set [6] the target is Neuraminidase (Influenza A virus (A/Puerto Rico/8/1934(H1N1)), UniProt P03468). The experiment in a line: Inhibition of Influenza A virus A/WSN/1933(H1N1) Neuraminidase using MU-NANA as substrate preincubated for 30 mins followed by substrate addition and measured after 1 hr by spectrofluorometry relative to control.
A short description of data set [7]: Inhibition of Influenza A virus A/Taiwan/3446/2002(H3N2) Neuraminidase using MU-NANA as substrate preincubated for 30 mins followed by substrate addition and measured after 1 hr by spectrofluorometry relative to control.
Data set [8] concerns the target Neuraminidase (Influenza A virus (A/Puerto Rico/8/1934(H1N1))) (UniProt P03468). Particulars: Influenza A virus (A/Anhui/1/2005(H5N1)); at 100 µM.
Data set [9] has the same target. Particulars: Influenza A virus (A/Anhui/1/2005(H5N1)); at 10 µM.
Data set [10] shares this target. Particulars: Influenza A virus (A/Anhui/1/2005(H5N1)); at 1 µM.
Data set [11] relates to Influenza A virus. As to the kind of experiment: microbe, parasite or virus in culture. Particulars: (A/LiaoNing-ZhenXing/1109/2010(H1N1), MDCK, 72 h.
In data set [12] the test system is Influenza A virus. As to the kind of experiment: microbe, parasite or virus in culture. Particulars: A/Puerto Rico/8/1934(H1N1), MDCK, 72 h.
Data set [13] in a line: in vitro. Particulars: dog, MDCK cells.
A short description of data set [14]: AUC in Sprague-Dawley rat at 10 mg/kg, iv measured upto 24 hrs by LC-MS/MS analysis. Particulars: in vivo. It counts as ADME, organism-based. The arrangement: dose 10 mg/kg, time < 24 hr, route intravenous.
Data set [15] is described as follows: Cmax in Sprague-Dawley rat at 50 mg/kg, po measured upto 24 hrs by LC-MS/MS analysis. It counts as ADME, organism-based. Further details: dose 50 mg/kg, route oral. Particulars: in vivo.
Data set [16] in a line: in vitro. Particulars: human, liver microsomes. On the technique in general: Microsomes from liver hold many membrane-bound enzymes, among them those of drug oxidation.
In data set [17] the target is Neuraminidase (Influenza A virus (A/Puerto Rico/8/1934(H1N1)), UniProt P03468). The arrangement: species or system Influenza A virus (A/Anhui/1/2005(H5N1)).
Data set [18] is described as follows: AUC in Sprague-Dawley rat at 50 mg/kg, po measured upto 24 hrs by LC-MS/MS analysis. Further details: dose 50 mg/kg, time < 24 hr, route oral. The class given is ADME, organism-based. Particulars: in vivo.
Data set [19] is described as follows: Bioavailability in Sprague-Dawley rat at 10 mg/kg, iv measured upto 24 hrs by LC-MS/MS analysis. Particulars: in vivo. It counts as ADME, organism-based.
Data set [20] can be described thus: in vitro. Particulars: rat, liver microsomes.
A short description of data set [21]: in vitro. Particulars: human, liver microsomes. The source holds these as a separate data set.
Data set [22] in a line: Half life in Sprague-Dawley rat at 10 mg/kg, iv measured upto 24 hrs by LC-MS/MS analysis. It counts as ADME, organism-based. Particulars: in vivo.
Data set [23] can be described thus: in vitro. Particulars: rat, liver microsomes. This is another data set of the same source.
The nature of data set [24]: Oral bioavailability in Sprague-Dawley rat at 50 mg/kg measured upto 24 hrs by LC-MS/MS analysis. The class given is ADME, organism-based. Particulars: in vivo.
A short description of data set [25]: Tmax in Sprague-Dawley rat at 50 mg/kg, po measured upto 24 hrs by LC-MS/MS analysis. It counts as ADME, organism-based. Particulars: in vivo.
Data set [26] can be described thus: Half life in Sprague-Dawley rat at 50 mg/kg, po measured upto 24 hrs by LC-MS/MS analysis. Particulars: in vivo. The class given is ADME, organism-based.
Data set [27] in a line: MRT in Sprague-Dawley rat at 50 mg/kg, po measured upto 24 hrs by LC-MS/MS analysis. Particulars: in vivo. The class given is ADME, organism-based.
Data set [28] is described as follows: MRT in Sprague-Dawley rat at 10 mg/kg, iv measured upto 24 hrs by LC-MS/MS analysis. It counts as ADME, organism-based. Particulars: in vivo.

Neuraminidase (Influenza A virus (A/Puerto Rico/8/1934(H1N1))), sequence (P03468 whole entry): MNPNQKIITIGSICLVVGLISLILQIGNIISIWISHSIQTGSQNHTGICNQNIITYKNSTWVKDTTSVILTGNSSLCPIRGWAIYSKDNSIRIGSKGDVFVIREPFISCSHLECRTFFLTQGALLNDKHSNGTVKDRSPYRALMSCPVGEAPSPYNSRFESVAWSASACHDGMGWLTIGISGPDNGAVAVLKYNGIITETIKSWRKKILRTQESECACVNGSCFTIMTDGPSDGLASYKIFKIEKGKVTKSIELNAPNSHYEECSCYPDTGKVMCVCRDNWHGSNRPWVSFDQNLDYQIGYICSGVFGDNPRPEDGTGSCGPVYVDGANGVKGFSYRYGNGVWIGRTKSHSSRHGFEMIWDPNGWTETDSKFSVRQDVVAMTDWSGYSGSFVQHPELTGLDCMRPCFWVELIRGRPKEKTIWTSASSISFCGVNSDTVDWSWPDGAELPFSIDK
Neuraminidase (Influenza A virus (A/Puerto Rico/8/1934(H1N1)), UniProt P03468), sequence (P03468 whole entry): as above

For the compound `CC(C)[N+](C)(CCOC(=O)C1c2ccccc2Oc2ccccc21)C(C)C` [PROPANTHELINE BROMIDE], the remaining at 10 min in data set [1] amounted to 68.2%. Moreover, the remaining at 1 h in data set [2] amounted to 10.1%. Moreover, the remaining at 0.5 h in [3] was found to be 34.8%. The remaining at 0 h in data set [4] is 100%. Besides, the remaining at 2 h in [5] came to 0.7%.

On to `CC(=O)N[C@H]1[C@H]([C@H](O)[C@H](O)CO)OC(C(=O)O)=C[C@@H]1NC(=N)NC(=O)CSc1cccc2ccccc12`, for which the IC50 in [6] was found to be 0.0023 µM; in [7], 0.0029 µM.

As to `CCC(=O)Nc1ccc(OC)nc1N[C@H]1CC(C(=O)O)=C[C@@H](OC(CC)CC)[C@@H]1NC(C)=O`, the inhibition in [8] was determined as 10.7%.

For `CCC(CC)O[C@@H]1C=C(C(=O)O)C[C@H](Nc2ccc(N)cn2)[C@H]1NC(C)=O`, the values for the inhibition in data set [8] and in data set [9] were 67.7% and 30%, respectively.

In the case of `CCC(CC)O[C@@H]1C=C(C(=O)O)C[C@H](Nc2ncc(Br)cc2NC(=O)c2ccccc2)[C@H]1NC(C)=O`, in [8], the inhibition was found to be 36.9%.

In the case of `CCC(CC)O[C@@H]1C=C(C(=O)O)C[C@H](Nc2ncc(Br)cc2N)[C@H]1NC(C)=O`, the inhibition stood at 55.9% in data set [8] and 26.8% in data set [9].

In [8], `CCC(CC)O[C@@H]1C=C(C(=O)O)C[C@H](Nc2ncc(Br)cc2[N+](=O)[O-])[C@H]1NC(C)=O` came in with an inhibition of 54.3%.

With `CCC(CC)O[C@@H]1C=C(C(=O)O)C[C@H](Nc2nc(OC)ccc2N)[C@H]1NC(C)=O`, the inhibition in data set [8] worked out at 81.4%; in data set [9], 41.3%.

In the case of `CCC(CC)O[C@@H]1C=C(C(=O)O)C[C@H](Nc2ccc([N+](=O)[O-])cn2)[C@H]1NC(C)=O`, the inhibition in data set [8] came out at 87.1%; in data set [10] it was 8.9%.

For the compound `CCC(CC)O[C@@H]1C=C(C(=O)O)C[C@H](Nc2ncc(Br)cc2NC(=O)C(C)C)[C@H]1NC(C)=O`, the inhibition in [8] worked out at 79.3%; in data set [10] it was 19.1%.

In [8], `CCC(CC)O[C@@H]1C=C(C(=O)O)C[C@H](Nc2nc(OC)ccc2NC(=O)c2ccccc2)[C@H]1NC(C)=O` had an inhibition of 70.6%.

Take `CCC(CC)O[C@@H]1C=C(C(=O)O)C[C@H](Nc2nc(OC)ccc2NC(C)=O)[C@H]1NC(C)=O`: the figures for the inhibition in data set [8] and in [10] were 75.7% and 10.1%, respectively.

For `CCC(CC)O[C@@H]1C=C(C(=O)O)C[C@H](Nc2ncc(C)cc2N)[C@H]1NC(C)=O`, the inhibition is 46.8% in data set [8] and 25.9% in [9].

Take `CCC(CC)O[C@@H]1C=C(C(=O)O)C[C@H](Nc2nc(OC)ccc2[N+](=O)[O-])[C@H]1NC(C)=O`: the figures for the inhibition in data set [8] and in [10] were 82.9% and 27.9%, respectively.

In turn, `CCC(CC)O[C@@H]1C=C(C(=O)O)C[C@H](Nc2ncc(Br)cc2NC(C)=O)[C@H]1NC(C)=O` registered an inhibition in [8] of 46.7%.

As to `CCC(CC)O[C@@H]1C=C(C(=O)O)C[C@H](Nc2ccc(NC(C)=O)cn2)[C@H]1NC(C)=O`, the values for the inhibition in data set [8] and in data set [10] were 38.7% and 9.6%, respectively.

Regarding `CCCC(=O)Nc1cc(Br)cnc1N[C@H]1CC(C(=O)O)=C[C@@H](OC(CC)CC)[C@@H]1NC(C)=O`, the values for the inhibition in data set [8] and in [10] were 41.5% and 6.8%, respectively.

In the case of `CCC(CC)O[C@@H]1C=C(C(=O)O)C[C@H](Nc2ncccc2[N+](=O)[O-])[C@H]1NC(C)=O`, the inhibition turned out to be 76.1% in [8] and 9.1% in [10].

In data set [8], `CCCC(=O)Nc1cccnc1N[C@H]1CC(C(=O)O)=C[C@@H](OC(CC)CC)[C@@H]1NC(C)=O` displayed an inhibition of 22.1%.

Take `CCC(CC)O[C@@H]1C=C(C(=O)O)C[C@H](Nc2ccc(NC(=O)c3ccccc3)cn2)[C@H]1NC(C)=O`: the inhibition in [8] was 18.6%.

Regarding `CCC(CC)O[C@@H]1C=C(C(=O)O)C[C@H](N)[C@H]1NC(C)=O` [OSELTAMIVIR CARBOXYLATE], the EC50 in [11] is 67.5 µM; in data set [12], 2.49 µM. In data set [13], the 50% cytotoxic concentration (CC50) at 72 h was greater than 1000 µM.

For `CCC(CC)O[C@@H]1C=C(C(=O)O)C[C@H](Nc2ncccc2N)[C@H]1NC(C)=O`, the AUC at 24 h in data set [14] was 4540 ng·h/mL; in data set [18], 358 ng·h/mL. The highest level in [15] (Cmax) was 253 ng/mL. Further, the EC50 was 14.3 µM in [11] and 12.7 µM in data set [12]. Further, in data set [1], the remaining at 10 min was 95.1%. The half-life at 1 h in data set [16] and in [23] was greater than 145 min throughout. The compound further displayed an IC50 in [17] of 0.32 µM. Further, the inhibition amounted to 92.4% in [8] and 87.6% in [9]. Moreover, the F in [19] is on record as 100%. Further, the remaining at 1 h worked out at 113% in data set [2], 85.5% in data set [20] and 87.5% in data set [21]. For the same compound, the half-life in [22] was 30.6 min; in [26], 94.2 min. Moreover, in data set [3], the remaining at 0.5 h is 103%. In data set [24], this compound gave a bioavailability of 1.58%. Besides, in data set [25], the Tmax was determined as 19.8 min. For the same compound, the remaining at 0 h in [4] amounted to 100%. Also, the remaining at 2 h in [5] was found to be 102%. The MRT in data set [27] came out at 127 min; in [28], 11.4 min.

Compound `CCC(CC)O[C@@H]1C=C(C(=O)O)C[C@H](Nc2ncccc2NC(=O)c2ccccc2)[C@H]1NC(C)=O` returned an inhibition in data set [8] of 7.6%.

For `CCC(CC)O[C@@H]1C=C(C(=O)O)C[C@H](Nc2nccc(C)c2N)[C@H]1NC(C)=O`, the inhibition was found to be 24.2% in data set [8] and 10.7% in [9].

In turn, `O=C(O)Cc1ccccc1Nc1c(Cl)cccc1Cl` [DICLOFENAC] displayed a half-life at 1 h in data set [23] of 17.1 min.

As for `CCCC(=O)Nc1ccc(OC)nc1N[C@H]1CC(C(=O)O)=C[C@@H](OC(CC)CC)[C@@H]1NC(C)=O`, the results for the inhibition in data set [8] and in data set [10] were 76.3% and 16%, respectively.
